Results reported in paper PMC10221418, “The Specific Binding and Promotion Effect of Azoles on Human Aldo-Keto Reductase 7A2” (Metabolites, 2023).

What was measured:
human AKR7A2 [1] = molecular target: T1, human AKR7A2 (Homo sapiens, UniProt O43488); assay: Biacore assays: binding of azole drugs and 2-CBA to immobilized AKR7A2; details: 25 °C; for kd: 1:1 binding model; for Kd: KD calculated by kd/ka
T1 construct: made in house; host or cells: E. coli BL21 (DE3) pLysS, pET-28a vector
Description: All experiments were performed on a Biacore 8k instrument (GE, Healthcare). According to the manufacturer’s handbook, about 1 mg/mL of freshly purified AKR7A2 protein was diluted with 10 mM sodium acetate buffer (pH 5.0) and was immobilized on a sensor chip CM5, via amine coupling, to a level of ~20,000 resonance units (RU). A reference surface was prepared in parallel with the addition of the buffer and was used for the subtraction of nonspecific binding. The analytes 2-CBA and azole drugs were diluted in a running buffer containing 2% DMSO. […] All samples were injected at a flow rate of 30 μL/min. The experimental sensorgrams were analyzed by Biacore 8k Evaluation Software Version 1.1.1.7442. The resulting curves were fitted with a 1:1 binding model, which gave the kinetic constants (ka, kd, and KD). All measurements were repeated in at least three independent experiments.

human AKR7A2 [2] = molecular target: T1, human AKR7A2; assay: Steady-state kinetics of AKR7A2 catalyzing 2-CBA in the absence or presence of azole drugs; type: biochemical; details: for effect on catalytic efficiency (kcat/Km) of AKR7A2 catalyzing 2-CBA: compared to absence of drug; for kcat / increment of kcat/Km compared with the absence of the drug: substrate 2-CBA; for increment of kcat/Km compared with the absence of the drug: highest concentration of drug (50 μM; fluconazole 100 μM)
Description: (§1) The steady-state kinetic parameters of AKR7A2 catalyzing 2-CBA were measured on a UV-2550 spectrophotometer (SHIMADZU, Japan) in the absence or presence of azole drugs. All drugs were dissolved with DMSO. Fluconazole, voriconazole, and ketoconazole were all made up of 2, 5, and 10 mM of mother solution. […] The steady-state kinetic assays were performed, as before, with some modifications. […] The reactions were initiated by the addition of 2-CBA and were monitored for 4 min at 25 °C. […] The kinetic data were fitted to the Michaelis-Menten equation [56, 57] using GraphPad Prism 8.0 (GraphPad Software, San Diego, CA, USA). The kinetic parameters Km and kcat were generated by the fitting. The resulting data were expressed as the mean ± standard deviation (SD) based on at least three independent experiments. Statistical significance was analyzed by ANOVA, and the significance was defined as * p < 0.05, ** p < 0.01, *** p < 0.001, or **** p < 0.0001.

[3] = parameters: method as in PMID 12942409; details: patients, after administration; cited from earlier work
human AKR7A2 [4] = molecular target: T1, human AKR7A2; assay: Steady-state kinetics of AKR7A2 with SSA as a substrate in the absence or presence of voriconazole; type: biochemical; details: for kcat: substrate SSA
Description: as §1, with “The steady-state kinetic parameters of AKR7A2 catalyzing 2-CBA were measured on a UV-2550 spectrophotometer (SHIMADZU, Japan) in the absence or presence of azole drugs.” left out, “The reactions were initiated by the addition of 2-CBA and were monitored for 4 min at 25 °C.” left out

T1 sequence (O43488 39-359): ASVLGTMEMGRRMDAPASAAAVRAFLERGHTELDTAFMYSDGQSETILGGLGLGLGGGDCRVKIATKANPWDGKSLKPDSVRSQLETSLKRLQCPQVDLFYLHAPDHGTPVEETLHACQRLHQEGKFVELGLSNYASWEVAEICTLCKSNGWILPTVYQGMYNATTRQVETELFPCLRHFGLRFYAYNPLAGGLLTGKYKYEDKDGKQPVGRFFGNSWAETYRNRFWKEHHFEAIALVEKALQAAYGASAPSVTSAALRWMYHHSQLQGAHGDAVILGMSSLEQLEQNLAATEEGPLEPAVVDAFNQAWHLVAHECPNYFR

SMILES	kd (human AKR7A2 [1])	Kd (human AKR7A2 [1])	effect on catalytic efficiency (kcat/Km) of AKR7A2 catalyzing 2-CBA (human AKR7A2 [2])	kcat (human AKR7A2 [2]; drug concentration 5 μM)	kcat (human AKR7A2 [2]; drug concentration 20 μM)	kcat (human AKR7A2 [2]; drug concentration 50 μM)	kcat (human AKR7A2 [2]; drug concentration 100 μM)	increment of kcat/Km compared with the absence of the drug (human AKR7A2 [2])	effect on catalysis of AKR7A2 with SSA as a substrate (human AKR7A2 [4]; concentration range of 0–50 µM)	kcat (human AKR7A2 [4]; drug concentration 5 μM)	kcat (human AKR7A2 [4]; drug concentration 20 μM)	kcat (human AKR7A2 [4]; drug concentration 50 μM)	cerebrospinal fluid concentrations [3]
O=Cc1ccccc1C(=O)O [2-CBA, 2-carboxybenzaldehyde]	0.0229 ± 0.0202 s⁻¹	19.3 ± 14.9 µM	–	–	–	–	–	–	–	–	–	–	–
CCC(C)n1ncn(-c2ccc(N3CCN(c4ccc(OCC5COC(Cn6cncn6)(c6ccc(Cl)cc6Cl)O5)cc4)CC3)cc2)c1=O (centres unmarked) [itraconazole]	0.0263 ± 0.0035 s⁻¹	0.81 ± 0.44 µM	enhanced significantly	1.342 ± 0.0237 s⁻¹	1.219 ± 0.0167 s⁻¹	1.107 ± 0.023 s⁻¹	–	35%	–	–	–	–	–
Clc1ccc(COC(Cn2ccnc2)c2ccc(Cl)cc2Cl)c(Cl)c1 (centres unmarked) [miconazole]	0.0536 ± 0.0017 s⁻¹	84.9 ± 7.21 µM	enhanced significantly	1.205 ± 0.0228 s⁻¹	1.196 ± 0.0235 s⁻¹	1.236 ± 0.0292 s⁻¹	–	67%	–	–	–	–	–

Continued, in another order:

kd (human AKR7A2 [1])	Kd (human AKR7A2 [1])	effect on catalytic efficiency (kcat/Km) of AKR7A2 catalyzing 2-CBA (human AKR7A2 [2])	kcat (human AKR7A2 [2]; drug concentration 5 μM)	kcat (human AKR7A2 [2]; drug concentration 20 μM)	kcat (human AKR7A2 [2]; drug concentration 50 μM)	kcat (human AKR7A2 [2]; drug concentration 100 μM)	increment of kcat/Km compared with the absence of the drug (human AKR7A2 [2])	effect on catalysis of AKR7A2 with SSA as a substrate (human AKR7A2 [4]; concentration range of 0–50 µM)	kcat (human AKR7A2 [4]; drug concentration 5 μM)	kcat (human AKR7A2 [4]; drug concentration 20 μM)	kcat (human AKR7A2 [4]; drug concentration 50 μM)	SMILES	cerebrospinal fluid concentrations [3]
15.9 ± 0.72 (s^−1) × 10^2	565 ± 84 µM	did not significantly change	1.194 ± 0.0285 s⁻¹	1.213 ± 0.0258 s⁻¹	1.262 ± 0.0635 s⁻¹	–	–	–	–	–	–	Clc1ccc(COC(Cn2ccnc2)c2ccc(Cl)cc2Cl)cc1 (centres unmarked) [econazole]	–
0.0218 ± 0.0046 s⁻¹	8.11 ± 4.83 µM	enhanced significantly	–	1.195 ± 0.0173 s⁻¹	1.221 ± 0.0192 s⁻¹	1.072 ± 0.0185 s⁻¹	64%	–	–	–	–	OC(Cn1cncn1)(Cn1cncn1)c1ccc(F)cc1F [fluconazole]	–
12.6 ± 1.91 (s^−1) × 10^2	1800 ± 438 µM	did not significantly change	–	1.302 ± 0.0268 s⁻¹	1.271 ± 0.0303 s⁻¹	1.44 ± 0.0348 s⁻¹	–	–	–	–	–	CC(=O)N1CCN(c2ccc(OCC3COC(Cn4ccnc4)(c4ccc(Cl)cc4Cl)O3)cc2)CC1 (centres unmarked) [ketoconazole]	–
0.0298 ± 0.0059 s⁻¹	1.35 ± 0.44 µM	enhanced significantly	1.239 ± 0.0212 s⁻¹	1.273 ± 0.029 s⁻¹	1.029 ± 0.0295 s⁻¹	–	74%	–	–	–	–	CC[C@@H]([C@H](C)O)n1ncn(-c2ccc(N3CCN(c4ccc(OC[C@@H]5CO[C@@](Cn6cncn6)(c6ccc(F)cc6F)C5)cc4)CC3)cc2)c1=O [posaconazole]	–
0.0168 ± 0.0072 s⁻¹	2.98 ± 2.11 µM	did not significantly change	–	1.126 ± 0.0163 s⁻¹	1.237 ± 0.0168 s⁻¹	1.258 ± 0.0248 s⁻¹	–	efficiently promote the catalysis	1.297 ± 0.0377 s⁻¹	1.306 ± 0.024 s⁻¹	1.326 ± 0.0222 s⁻¹	C[C@@H](c1ncncc1F)[C@](O)(Cn1cncn1)c1ccc(F)cc1F [voriconazole]	0.08 to 3.93 µg/mL
